Series [1] in a line: Characterization of polymorphs and pseudo-polymorphs of Compound 5. The class given is physicochemical.
A short description of series [2]: Approximate solubility of Compound 5 polymorphs in EtOH:DCM (v:v=1:4). The class given is physicochemical. As to conditions: 25° C.; for Approximate solubility (visual appearance): EtOH:DCM (v:v = 1:4), listed as Form VI. On the procedure: Four polymorphs (Form V, Form VI, Form VII and Form VIII) were weighed respectively and a suitable amount of solvent mixture EtOH:DCM (v:v=1:4) was added. The obtained samples were stirred at a rate of 400 rpm at 25° C.

A short description of series [3]: Bulk stability of Compound 5 Form VI and Form VIII at 25° C./60% RH, open container, 1 week (XRPD, HPLC, color). The class given is physicochemical. The procedure:
Compound 5 Form VI and Form VIII were placed at 25° C./60% RH in an open container over 1 week. Samples after the stress were characterized by XRPD and HPLC and inspected for color change.

Series [4] is described as follows: Solubility of Compound 5 Form VI and Form VIII at 25° C., equilibration for 24 hours (HPLC; XRPD of residual solids). The class given is physicochemical. The procedure: 11 mg (for 20 mg/mL target concentration) or 22 mg (for 50-60 mg/mL target concentration) of Compound 5 Form VI and Form VIII (equivalent to 10 mg or 20 mg of anhydrate free base) was weighed into a 4 mL glass vial, respectively. Up to 0.5 mL of potential eluent medium was added. The obtained suspensions/solutions were stirred at 25° C. at 400 rpm for 24 hours and then centrifuged at 25° C. at 14,000 rpm for 5 minutes. The residual solids were characterized by XRPD to determine the physical form. The supernatants (0.1 mL) were evaporated at about 22-25° C./30-60% RH.

In series [5] the test system is relapsed/refractory (r/r) MCL. As to conditions: r/r subjects with MCL following bortezomib; cited from earlier work.
Where [6] appears, read: THF/Heptane (v:v = 1:2), 25° C., 24 hours, target conc. 20 mg/mL.
The mark [7] stands for this setting: THF/water (v:v = 1:2.5), 25° C., 24 hours, target conc. 20 mg/mL, listed as Form VI.

Values after ≈ are worked out from the molar mass of the structure shown.

Take `O=C1CCC(N2C(=O)c3cccc4c(Cc5ccc(CN6CCOCC6)cc5)ccc2c34)C(=O)N1` (racemic) [Compound 5 Form VI]: in series [1] (DSC), the “Evaporation of solvent from (by DSC)” value is on record as “about 154° C.;”. Moreover, in series [1] (DSC, listed as Form VI), the “Dehydration (by DSC)” value was “about 6° C.;”. The “Enthalpy (by DSC)” value in series [1] (DSC, listed as Form VI) was determined as 35 J/g. For the same compound, the “Melting onset Tonset (by DSC)” value in series [1] (DSC, listed as Form VI) is “Tonset 226.4° C.,”. Moreover, the “Weight loss (by TGA)” value in series [1] (at 215° C.) is 9.7% at 215 °C. Also, the “Residual ion (by IC): Br−” value in series [1] (listed as Form VI) is given as “Br^−: 0.22 equiv”. Moreover, in series [1] (listed as Form VI), the “Residual ion (by IC): Cl−” value is given as “Cl^−: 0.08 equiv.;”. Further, in series [1] (listed as Form VI), the “Residual ion (by IC): Li+” value was “Li^+: 0.17 equiv.;”. For the same compound, the “Residual ion (by IC): Na+” value in series [1] (listed as Form VI) is reported as “Na+: 0.02 equiv”. The “Approximate solubility (visual appearance)” value in series [2] (concentration 10 mg/mL) and in series [2] (concentration 20 mg/mL) was “Suspension” in each case. In series [2] (EtOH:DCM (v:v=1:4), visual observation), the “approximate solubility compared with Form V and Form VII” value is given as “higher solubility”. Besides, the “bulk stability, chemical” value in series [3] is on record as “chemically stable”. In addition, the “bulk stability, physical (form)” value in series [3] (listed as Form VI) is listed as “good physical stability”. In addition, the “Bulk (HPLC) Purity” value in series [3] (solid state, initial purity 93.1% (Form VI), 95.6% (Form VIII), listed as Form VI) is 93.1%. In series [3] (solid state, listed as Form VI), the “Bulk (XRPD)” value was “Form VI”. The “solubility” value in series [4] (EtOH/DCM (v:v = 1:4), 25° C., 24 hours, target conc. 50-60 mg/mL, LOQ 0.8 μg/mL, listed as Form VI) was 27 mg/mL (≈ 57.5 mM); in series [4] (MeOH/DCM (v:v = 1:2), 25° C., 24 hours, target conc. 50-60 mg/mL, LOQ 0.8 μg/mL), 30 mg/mL (≈ 63.9 mM); in series [4] (setting [6]) it was 0.1 mg/mL (≈ 0.213 mM); in series [4] (THF/IPA (v:v = 1:2), 25° C., 24 hours, target conc. 20 mg/mL, listed as Form VI), 0.9 mg/mL (≈ 1.92 mM); in series [4] (setting [7]) it was 4 mg/mL (≈ 8.52 mM); in series [4] (in EtOH/DCM (v:v=1:4), about 25° C., 24 h, listed as Form VI), about 27 mg/mL (≈ 57.5 mM). Moreover, the solubility entry is reported as “about 30 mg/mL” in series [4] (in MeOH/DCM (v:v=1:2), about 25° C., 24 h); about 30 mg/mL (≈ 63.9 mM) in series [4] (in MeOH:DCM (v:v=1:2) and EtOH:DCM (v:v=1:4), 25° C. for 24 h, listed as Form VI); about 1 mg/mL (≈ 2.13 mM) in series [4] (in THF:IPA (v:v=1:2), THF:Heptane (v:v=1:2) and THF:Heptane (v:v=1:2.5), 25° C. for 24 h). In addition, the “physical form after solubility test” value in series [4] (MeOH:DCM (v:v=1:2) and EtOH:DCM (v:v=1:4), 25° C., 24 h) is reported as “converted to almost the amorphous form”; in series [4] (THF:2-propanol (v:v=1:2), THF:Heptane (v:v=1:2) and THF:water (v:v=1:2.5), 25° C., 24 h) it was “no form change”. In addition, the “XRPD of residual solids” value in series [4] (setting [6]) is listed as “Form VI”; in series [4] (THF/IPA (v:v = 1:2), 25° C., 24 hours, target conc. 20 mg/mL), “Form VI”; in series [4] (setting [7]), “Form VI”.
With `Nc1cccc2c1CN(C1CCC(=O)NC1=O)C2=O` (centres unmarked) [lenalidomide], in series [5], the “median duration of response [DOR]” value was 16.6 months and the “overall response rate [ORR]” value is reported as 28%.

By solubility is commonly meant the concentration that dissolves in the medium under given conditions.

Source of the values: patent US20240391912A1, “MORPHIC FORMS OF CFT7455 AND METHODS OF MANUFACTURE THEREOF” (C4 THERAPEUTICS, INC., priority 2022, published 2024).
